Test results published in patent publication US11339171B2, “MDM2 inhibitors” (Gan & Lee Pharmaceuticals, priority 2017, dated 2022).

Key:
[1] = test system: human osteosarcoma cell line SJSA-1; assay: Inhibition of proliferation of human osteosarcoma cell line SJSA-1 (DAPI staining, In Cell Analyzer); details: for inhibitory effect on human osteosarcoma cell line SJSA-1 compared with positive control compound HDM201: labels are Example numbers, the compounds with S-configuration are meant
MDM2 = biological target: T1, MDM2 (Homo sapiens, UniProt Q00987); assay: Inhibition test of MDM2-P53 (GST-MDM2, Biotin-P53, Anti-GST-Tb, SA-XL665); assay type: binding; details: labels are Example numbers; the compounds with S-configuration are meant
T1 construct: made in house
Outline: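 Binding was measured by TR-FRET with GST-MDM2 at 4 nM final in PBS with 0.1% BSA, 5 mM DTT and 1 mM AEBSF. Compounds were tested as twelve-point 5-fold dilutions and incubated with the detection mix for 90 min at 25 °C with shaking before plate-reader reading and curve fitting.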

T1 sequence (Q00987 whole entry): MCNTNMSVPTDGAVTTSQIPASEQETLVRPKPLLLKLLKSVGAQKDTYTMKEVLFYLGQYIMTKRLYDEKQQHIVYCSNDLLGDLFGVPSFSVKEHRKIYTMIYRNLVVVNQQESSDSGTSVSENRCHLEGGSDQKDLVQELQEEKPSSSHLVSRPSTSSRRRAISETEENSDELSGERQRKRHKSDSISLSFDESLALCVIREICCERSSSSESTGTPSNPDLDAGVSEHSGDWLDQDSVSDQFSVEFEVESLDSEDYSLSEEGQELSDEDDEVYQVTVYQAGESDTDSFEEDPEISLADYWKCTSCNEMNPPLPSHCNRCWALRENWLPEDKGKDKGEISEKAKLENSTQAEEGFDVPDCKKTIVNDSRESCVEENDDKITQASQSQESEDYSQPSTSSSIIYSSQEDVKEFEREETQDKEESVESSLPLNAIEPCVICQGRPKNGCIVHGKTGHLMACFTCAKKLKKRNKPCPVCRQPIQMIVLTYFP

| Compound | inhibitory effect on human osteosarcoma cell line SJSA-1 compared with positive control compound HDM201 [1] | inhibitory effect on MDM2 compared with positive control compound HDM201 (MDM2) | IC50 ([1]; Homo sapiens, SJSA-1, 72 h, read-out: IC50 (nM), inhibitory activity on proliferation of human osteosarcoma cell line SJSA-1, SJSA-1, incubated 72 h) |
| --- | --- | --- | --- |
| COc1ncc(-c2nc3c(n2C(C)C)C2(C(=O)Nc4cc(Cl)ccc42)N(c2cc(Cl)ccc2C)C3=O)c(OC)n1 (stereo not drawn) [Example 2, 6-chloro-5′-(5-chloro-2-methylphenyl)-2′-(2,4-dimethoxypyrimidin-5-yl)-3′-isopropyl-3′H-spiro[dihydroindole-3,4′-pyrrolo[3,4-d]imidazole]-2,6′(5′H)-dione] | better | better | – |
| COc1cc(OC)c(-c2nc3c(n2C(C)C)C2(C(=O)Nc4cc(Cl)ccc42)N(c2cc(Cl)ccc2C)C3=O)cn1 (stereo not drawn) [Example 11, 6-chloro-5′-(5-chloro-2-methylphenyl)-2′-(4,6-dimethoxypyridin-3-yl)-3′-isopropyl-3′H-spiro[dihydroindole-3,4′-pyrrolo[3,4-d]imidazole]-2,6′(5′H)-dione] | better | better | – |
| CCc1ccc(Cl)cc1N1C(=O)c2nc(-c3cnc(OC)nc3OC)n(C(C)C)c2C12C(=O)Nc1cc(Cl)ccc12 (stereo not drawn) [Example 15, 6-chloro-5′-(5-chloro-2-ethylphenyl)-2′-(2,4-dimethoxypyrimidin-5-yl)-3′-isopropyl-3′H-spiro[dihydroindole-3,4′-pyrrolo[3,4-d]imidazole]-2,6′(5′H)-dione] | better | better | – |
| COc1ccc(C(=O)N(C)C)cc1-c1nc2c(n1C(C)C)C1(C(=O)Nc3cc(Cl)ccc31)N(c1cc(Cl)ccc1C)C2=O (stereo not drawn) [Example 22, 3-(6-chloro-5′-(5-chloro-2-methylphenyl)-3′-isopropyl-2,6′-dioxo-5′,6′-dihydro-3′H-spiro[dihydroindole-3,4′-pyrrolo[3,4-d]imidazole]-2′-yl)-4-methoxy-N,N-dimethylbenzamide] | better | better | – |
| COc1ncc(-c2nc3c(n2C(C)C)C2(C(=O)Nc4cc(Cl)ccc42)N(c2cc(Cl)cnc2C)C3=O)c(OC)n1 (stereo not drawn) [Example 42, 6-chloro-5′-(5-chloro-2-methylpyridin-3-yl)-2′-(2,4-dimethoxypyrimidin-5-yl)-3′-isopropyl-3′H-spiro[dihydroindole-3,4′-pyrrolo[3,4-d]imidazole]-2,6′(5′H)-dione] | better | better | – |
| COc1ncc(-c2nc3c(n2C(C)C)C2(C(=O)Nc4cc(Cl)ccc42)N(c2cc(F)cc(Cl)c2)C3=O)c(OC)n1 (stereo not drawn) [Example 45, 6-chloro-5′-(3-chloro-5-fluorophenyl)-2′-(2,4-dimethoxypyrimidin-5-yl)-3′-isopropyl-3′H-spiro[dihydroindole-3,4′-pyrrolo[3,4-d]imidazole]-2,6′(5′H)-dione] | better | better | – |
| COc1cc(N)ccc1-c1nc2c(n1C(C)C)C1(C(=O)Nc3cc(Cl)ccc31)N(c1cc(Cl)ccc1C)C2=O (stereo not drawn) [Example 49, 2′-(4-amino-2-methoxyphenyl)-6-chloro-5′-(5-chloro-2-methylphenyl)-3′-isopropyl-3′H-spiro[dihydroindole-3,4′-pyrrolo[3,4-d]imidazole]-2,6′(5′H)-dione] | better | better | – |
| COc1ccncc1-c1nc2c(n1C(C)C)[C@@]1(C(=O)Nc3cc(Cl)ccc31)N(c1ccc(F)c(Cl)c1)C2=O [Example S-59, (S)-6-chloro-5′-(3-chloro-4-fluorophenyl)-3′-isopropyl-2′-(4-methoxypyridin-3-yl)-3′H-spiro[dihydroindole-3,4′-pyrrolo[3,4-d]imidazole]-2,6′(5′H)-dione] | – | – | 263 nM |
